Reference: BindingDB's records for doi:10.1021/bi1013479 (University of California Irvine, 2010)

Experiments:
Experiment in all cases: Inhibitory Assay
[1] = biological target: Nitric oxide synthase, inducible (Homo sapiens, UniProt P35228)
Description: (§1) Inhibition assay using nitric oxide synthases.

[2] = biological target: T1, Nitric oxide synthase, endothelial (Homo sapiens, UniProt P29474)
T1 sequence (P29474 whole entry): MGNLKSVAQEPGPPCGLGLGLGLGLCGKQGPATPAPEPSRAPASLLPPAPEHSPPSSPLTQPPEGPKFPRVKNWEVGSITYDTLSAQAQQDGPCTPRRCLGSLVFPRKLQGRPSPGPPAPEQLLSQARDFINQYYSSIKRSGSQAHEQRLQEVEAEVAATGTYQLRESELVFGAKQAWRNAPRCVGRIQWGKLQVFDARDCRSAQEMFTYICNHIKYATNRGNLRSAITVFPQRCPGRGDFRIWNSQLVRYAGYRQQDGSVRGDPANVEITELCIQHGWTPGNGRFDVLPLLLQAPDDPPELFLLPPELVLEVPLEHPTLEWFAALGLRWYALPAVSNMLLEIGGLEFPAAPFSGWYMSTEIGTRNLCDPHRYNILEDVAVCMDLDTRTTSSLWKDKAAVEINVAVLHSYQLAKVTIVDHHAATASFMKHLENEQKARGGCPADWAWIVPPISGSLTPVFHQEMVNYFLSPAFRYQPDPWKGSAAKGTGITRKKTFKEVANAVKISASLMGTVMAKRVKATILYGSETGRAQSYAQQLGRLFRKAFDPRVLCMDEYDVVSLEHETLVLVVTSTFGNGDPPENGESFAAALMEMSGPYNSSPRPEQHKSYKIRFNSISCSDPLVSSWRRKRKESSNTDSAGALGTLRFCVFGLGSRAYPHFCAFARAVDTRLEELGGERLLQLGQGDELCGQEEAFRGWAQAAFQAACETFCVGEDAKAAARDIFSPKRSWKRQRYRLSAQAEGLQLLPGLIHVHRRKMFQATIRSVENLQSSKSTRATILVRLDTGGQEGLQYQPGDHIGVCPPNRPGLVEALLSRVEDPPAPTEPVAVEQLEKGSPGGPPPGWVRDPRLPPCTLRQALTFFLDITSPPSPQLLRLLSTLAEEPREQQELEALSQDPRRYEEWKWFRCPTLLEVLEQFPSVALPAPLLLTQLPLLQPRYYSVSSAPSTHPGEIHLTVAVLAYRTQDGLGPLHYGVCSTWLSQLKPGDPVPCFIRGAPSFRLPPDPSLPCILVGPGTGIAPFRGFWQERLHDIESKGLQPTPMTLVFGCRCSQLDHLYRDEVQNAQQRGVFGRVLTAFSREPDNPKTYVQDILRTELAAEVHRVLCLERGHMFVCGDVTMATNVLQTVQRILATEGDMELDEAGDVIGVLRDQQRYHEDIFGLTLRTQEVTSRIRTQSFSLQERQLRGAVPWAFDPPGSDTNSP
Description: as §1

[3] = biological target: Nitric oxide synthase, brain (Homo sapiens, UniProt P29475)
Nitric oxide synthase, brain, sequence (P29475 whole entry): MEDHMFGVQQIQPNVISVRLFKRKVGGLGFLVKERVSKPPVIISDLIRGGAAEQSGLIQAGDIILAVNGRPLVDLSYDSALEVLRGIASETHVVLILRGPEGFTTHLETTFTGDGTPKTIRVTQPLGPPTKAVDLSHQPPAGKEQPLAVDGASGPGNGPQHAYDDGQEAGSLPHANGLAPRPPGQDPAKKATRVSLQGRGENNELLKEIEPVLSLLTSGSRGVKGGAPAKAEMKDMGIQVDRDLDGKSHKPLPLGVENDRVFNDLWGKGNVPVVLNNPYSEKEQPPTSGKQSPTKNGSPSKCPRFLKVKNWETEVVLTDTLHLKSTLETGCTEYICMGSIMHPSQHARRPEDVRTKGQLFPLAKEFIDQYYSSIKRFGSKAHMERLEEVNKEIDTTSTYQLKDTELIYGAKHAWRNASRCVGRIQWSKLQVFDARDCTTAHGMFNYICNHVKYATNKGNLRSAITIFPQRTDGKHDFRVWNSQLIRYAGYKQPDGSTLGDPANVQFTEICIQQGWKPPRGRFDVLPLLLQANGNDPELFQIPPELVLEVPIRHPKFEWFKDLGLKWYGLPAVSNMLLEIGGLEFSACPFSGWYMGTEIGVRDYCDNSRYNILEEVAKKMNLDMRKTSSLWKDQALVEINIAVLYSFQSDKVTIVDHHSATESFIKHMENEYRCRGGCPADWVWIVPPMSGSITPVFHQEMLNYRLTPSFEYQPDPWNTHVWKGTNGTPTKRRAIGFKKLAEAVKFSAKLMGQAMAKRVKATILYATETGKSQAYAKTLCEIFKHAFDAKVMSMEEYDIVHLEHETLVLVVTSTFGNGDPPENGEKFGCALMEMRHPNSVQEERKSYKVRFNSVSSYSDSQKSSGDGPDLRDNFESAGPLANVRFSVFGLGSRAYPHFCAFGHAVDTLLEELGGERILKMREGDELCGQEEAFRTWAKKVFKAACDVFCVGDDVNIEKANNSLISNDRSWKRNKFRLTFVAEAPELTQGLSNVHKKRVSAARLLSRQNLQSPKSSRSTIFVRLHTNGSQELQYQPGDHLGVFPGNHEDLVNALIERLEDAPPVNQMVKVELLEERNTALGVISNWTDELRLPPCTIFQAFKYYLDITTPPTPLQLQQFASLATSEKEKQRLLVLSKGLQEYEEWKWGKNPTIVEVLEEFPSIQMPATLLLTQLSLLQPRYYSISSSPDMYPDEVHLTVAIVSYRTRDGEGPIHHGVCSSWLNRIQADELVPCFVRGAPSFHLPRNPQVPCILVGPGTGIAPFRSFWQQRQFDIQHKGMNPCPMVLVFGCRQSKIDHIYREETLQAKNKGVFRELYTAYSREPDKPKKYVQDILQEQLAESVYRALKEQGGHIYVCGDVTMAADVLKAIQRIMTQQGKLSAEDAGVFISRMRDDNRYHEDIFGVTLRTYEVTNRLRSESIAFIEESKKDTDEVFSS
Description: as §1

Nitric oxide synthase, inducible, sequence (P35228 whole entry): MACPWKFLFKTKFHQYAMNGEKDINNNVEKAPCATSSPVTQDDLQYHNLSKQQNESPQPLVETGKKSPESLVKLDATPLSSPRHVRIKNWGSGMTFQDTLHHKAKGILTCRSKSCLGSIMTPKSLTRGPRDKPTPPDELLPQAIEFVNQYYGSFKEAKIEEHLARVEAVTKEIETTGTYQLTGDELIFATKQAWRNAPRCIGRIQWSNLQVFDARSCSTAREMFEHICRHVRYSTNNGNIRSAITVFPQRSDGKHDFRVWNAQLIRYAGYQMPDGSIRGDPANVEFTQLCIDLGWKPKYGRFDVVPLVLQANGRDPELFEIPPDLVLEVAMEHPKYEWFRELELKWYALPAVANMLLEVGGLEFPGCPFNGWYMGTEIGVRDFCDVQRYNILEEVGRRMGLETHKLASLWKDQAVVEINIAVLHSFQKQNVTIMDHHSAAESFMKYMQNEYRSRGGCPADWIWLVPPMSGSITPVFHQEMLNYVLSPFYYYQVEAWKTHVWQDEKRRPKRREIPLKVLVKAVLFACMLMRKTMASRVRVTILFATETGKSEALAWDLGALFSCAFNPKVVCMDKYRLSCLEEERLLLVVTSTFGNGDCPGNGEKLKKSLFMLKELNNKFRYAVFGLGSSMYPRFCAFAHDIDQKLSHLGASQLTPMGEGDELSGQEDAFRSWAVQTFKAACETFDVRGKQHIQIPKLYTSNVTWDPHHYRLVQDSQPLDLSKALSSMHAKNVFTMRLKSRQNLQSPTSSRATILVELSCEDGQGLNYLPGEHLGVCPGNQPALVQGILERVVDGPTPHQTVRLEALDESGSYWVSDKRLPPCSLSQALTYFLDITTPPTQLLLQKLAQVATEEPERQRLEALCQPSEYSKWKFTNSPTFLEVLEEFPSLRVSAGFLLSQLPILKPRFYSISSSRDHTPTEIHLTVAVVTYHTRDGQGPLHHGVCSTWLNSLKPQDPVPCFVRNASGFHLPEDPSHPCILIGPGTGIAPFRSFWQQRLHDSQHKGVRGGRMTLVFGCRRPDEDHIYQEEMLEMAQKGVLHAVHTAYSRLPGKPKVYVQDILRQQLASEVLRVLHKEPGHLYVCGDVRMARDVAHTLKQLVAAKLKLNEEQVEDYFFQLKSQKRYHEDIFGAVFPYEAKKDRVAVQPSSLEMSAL

Row | SMILES | Ki [1] [µM] | Ki [2] [µM] | Ki [3] [µM]
1 | Cc1cc(N)nc(CCc2cccc(CCc3cc(C)cc(N)n3)c2)c1 [NOS Inhibitor, 3h] | 2.73 | 4.2 | –
2 | Cc1cc(N)nc(CCc2cccc(CCc3cc(C)nc(N)c3)n2)c1 | 12.6 | 20 | 0.195
3 | Cc1cc(N)nc(CCc2cncc(CCc3cc(C)nc(N)c3)c2)c1 [6-(2-{5-[2-(2-amino-6-methylpyridin-4-yl)ethyl]pyridin-3-yl}ethyl)-4-methylpyridin-2-amine] | 1.91 | 16.1 | 0.103
4 | Cc1cc(N)nc(CCc2cc(N)cc(CCc3cc(C)cc(N)n3)c2)c1 [6,6'-[(5-aminobenzene-1,3-diyl)diethane-2,1-diyl]bis(4-methylpyridin-2-amine)] | 3.4 | 4.95 | 0.085
